Test results: ChEMBL document CHEMBL1201862, “PubChem BioAssay data set” (2004)
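A five-concentration, 48-hour dose response in 96-well plates underlies each endpoint, interpolated linearly between surrounding concentrations. Here, GI50 denotes the concentration required for 50% inhibition of growth.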 Active and inactive are the calls of the source. Cut-off read from the data, not from the text of the source: active = GI50 up to about 1.1 µM and inactive = higher.

What was measured:
Assay in all cases: DTP human tumour cell line panel, 48 h
[1] = system: TK-10
[2] = system: K562
[3] = system: BT-549
[4] = system: MOLT-4
[5] = system: NCI-H23
[6] = system: U-251
[7] = system: COLO 205
[8] = system: SK-OV-3
[9] = system: RXF 393
[10] = system: MDA-MB-231
[11] = system: RPMI-8226
[12] = system: HCT-116
[13] = system: HCC 2998
[14] = system: UACC-257
[15] = system: Hs-578T
[16] = system: SK-MEL-5
[17] = system: CAKI-1
[18] = system: CCRF-CEM
[19] = system: SF-539
[20] = system: NCI-H226

| SMILES | GI50 [1] | GI50 [2] | GI50 [3] | GI50 [4] | GI50 [5] | GI50 [6] | GI50 [7] | GI50 [8] | GI50 [9] | GI50 [10] | GI50 [11] | GI50 [12] | GI50 [13] | GI50 [14] | GI50 [15] | GI50 [16] | GI50 [17] | GI50 [18] | GI50 [19] | GI50 [20] |
| --- | --- | --- | --- | --- | --- | --- | --- | --- | --- | --- | --- | --- | --- | --- | --- | --- | --- | --- | --- | --- |
| C/C=C\C(CC(=O)NCCC1CN(S(=O)(=O)c2ccc(C)cc2)c2ccccc21)CC(=O)OC (stereo not given) | > 100 µM (inactive) | > 100 µM (inactive) | > 100 µM (inactive) | > 100 µM (inactive) | > 100 µM (inactive) | > 100 µM (inactive) | > 100 µM (inactive) | > 100 µM (inactive) | > 100 µM (inactive) | > 100 µM (inactive) | > 100 µM (inactive) | > 100 µM (inactive) | > 100 µM (inactive) | > 100 µM (inactive) | > 100 µM (inactive) | > 100 µM (inactive) | > 100 µM (inactive) | – | – | – |
| CCCCCC(O)[C@H]1C(=O)C[C@@H](O[Si](C)(C)C(C)(C)C)[C@@H]1/C=C/CCOCc1ccccc1 (stereo not given in full) | 15.1 µM (inactive) | > 36.5 µM (inactive) | 8.07 µM (inactive) | 4.46 µM (inactive) | 16.2 µM (inactive) | 12.1 µM (inactive) | 16 µM (inactive) | 16.8 µM (inactive) | 12.2 µM (inactive) | 29.2 µM (inactive) | 17 µM (inactive) | 6.9 µM (inactive) | 14.9 µM (inactive) | 13.3 µM (inactive) | 7.19 µM (inactive) | 16.6 µM (inactive) | 8.47 µM (inactive) | > 55.5 µM (inactive) | 4.23 µM (inactive) | 14 µM (inactive) |
| Cc1cc2c3c(nc4ccccc42)C(=O)c2ccccc2-c3n1 | 34.8 µM (inactive) | 0.839 µM (active) | 16.9 µM (inactive) | 3.34 µM (inactive) | 2.4 µM (inactive) | 16.1 µM (inactive) | 16.8 µM (inactive) | 14.8 µM (inactive) | 20.3 µM (inactive) | 18 µM (inactive) | 3.14 µM (inactive) | 8.59 µM (inactive) | 20.1 µM (inactive) | 22.8 µM (inactive) | 13.4 µM (inactive) | 0.569 µM (active) | 12.3 µM (inactive) | 5.16 µM (inactive) | 19.3 µM (inactive) | 21 µM (inactive) |
| COc1ccc2nc3cccc([N+](=O)[O-])c3c(NCCC(=O)O)c2c1 | > 10 µM (inactive) | > 10 µM (inactive) | > 10 µM (inactive) | 5.22 µM (inactive) | > 10 µM (inactive) | > 10 µM (inactive) | 7.59 µM (inactive) | > 10 µM (inactive) | > 10 µM (inactive) | > 10 µM (inactive) | > 10 µM (inactive) | > 10 µM (inactive) | > 10 µM (inactive) | > 10 µM (inactive) | 9.14 µM (inactive) | > 10 µM (inactive) | > 10 µM (inactive) | 6.67 µM (inactive) | > 10 µM (inactive) | > 10 µM (inactive) |
| CC1=N[C@](C)(C2CC3C=CC2C3=O)COC1=O (stereo not given in full) | > 100 µM (inactive) | > 100 µM (inactive) | > 100 µM (inactive) | > 100 µM (inactive) | > 100 µM (inactive) | > 100 µM (inactive) | > 100 µM (inactive) | > 100 µM (inactive) | > 100 µM (inactive) | > 100 µM (inactive) | – | > 100 µM (inactive) | > 100 µM (inactive) | > 100 µM (inactive) | > 100 µM (inactive) | > 100 µM (inactive) | > 100 µM (inactive) | > 100 µM (inactive) | > 100 µM (inactive) | > 100 µM (inactive) |
| Cc1ccc(Nc2[nH]c(=O)[nH]c(=O)c2C)cc1Cl | 91.8 µM (inactive) | > 100 µM (inactive) | > 100 µM (inactive) | – | > 100 µM (inactive) | > 100 µM (inactive) | > 100 µM (inactive) | > 100 µM (inactive) | > 100 µM (inactive) | > 100 µM (inactive) | 58.5 µM (inactive) | > 100 µM (inactive) | > 100 µM (inactive) | > 100 µM (inactive) | 70 µM (inactive) | 92 µM (inactive) | 67.3 µM (inactive) | – | > 100 µM (inactive) | > 100 µM (inactive) |
| CCOC(=O)/C=C\c1c(Cl)n(-c2ccccc2)c(=O)n(-c2ccccc2)c1=O | 18.1 µM (inactive) | – | 20.2 µM (inactive) | 38.5 µM (inactive) | 21.7 µM (inactive) | 32 µM (inactive) | 18.5 µM (inactive) | 22.2 µM (inactive) | 17.9 µM (inactive) | 21.2 µM (inactive) | > 10 µM (inactive) | 23.8 µM (inactive) | 18.5 µM (inactive) | 18.6 µM (inactive) | 27.3 µM (inactive) | – | 19.5 µM (inactive) | 21.9 µM (inactive) | 17.2 µM (inactive) | 20.7 µM (inactive) |
| COc1cc2c(cc1O)C1Cc3ccc(OC)c(O)c3C[N+]1(C)CC2 (stereo not given) | > 100 µM (inactive) | 58.3 µM (inactive) | > 100 µM (inactive) | > 100 µM (inactive) | > 100 µM (inactive) | > 100 µM (inactive) | > 100 µM (inactive) | > 100 µM (inactive) | > 100 µM (inactive) | > 100 µM (inactive) | > 100 µM (inactive) | > 100 µM (inactive) | > 100 µM (inactive) | – | > 100 µM (inactive) | > 100 µM (inactive) | > 100 µM (inactive) | 45 µM (inactive) | > 100 µM (inactive) | > 100 µM (inactive) |
| CC(=O)n1cc(C2CC23N=C(c2ccccc2)OC3=O)c2ccccc21 (stereo not given) | 20 µM (inactive) | 13.7 µM (inactive) | 14.2 µM (inactive) | – | 16.5 µM (inactive) | 18.1 µM (inactive) | 18.4 µM (inactive) | 49.9 µM (inactive) | 16.3 µM (inactive) | 20.8 µM (inactive) | 7.87 µM (inactive) | 14.4 µM (inactive) | 13.1 µM (inactive) | 15.7 µM (inactive) | 24.1 µM (inactive) | 17.1 µM (inactive) | 15.8 µM (inactive) | 1.12 µM (inactive) | 19.5 µM (inactive) | 23.6 µM (inactive) |
| COc1cccc(CCNc2c(C#N)c3n(c4ccccc4[n+]3C)c3ncccc23)c1 | 21.2 µM (inactive) | 2.39 µM (inactive) | 23.3 µM (inactive) | 2.55 µM (inactive) | 20.3 µM (inactive) | 2.37 µM (inactive) | 4.93 µM (inactive) | 20.3 µM (inactive) | 13.5 µM (inactive) | 4.52 µM (inactive) | 2.71 µM (inactive) | 1.77 µM (inactive) | 1.93 µM (inactive) | 21.9 µM (inactive) | 7.31 µM (inactive) | 14.6 µM (inactive) | 6.52 µM (inactive) | – | 1.58 µM (inactive) | 20.9 µM (inactive) |
| Cc1nc2c(sc3nc4ccccc4n32)c(=O)[nH]1 | > 100 µM (inactive) | – | > 100 µM (inactive) | > 100 µM (inactive) | > 100 µM (inactive) | > 100 µM (inactive) | > 100 µM (inactive) | 73.1 µM (inactive) | > 100 µM (inactive) | > 100 µM (inactive) | > 100 µM (inactive) | > 100 µM (inactive) | > 100 µM (inactive) | > 100 µM (inactive) | > 100 µM (inactive) | > 100 µM (inactive) | > 100 µM (inactive) | > 100 µM (inactive) | > 100 µM (inactive) | > 100 µM (inactive) |
| C=C(C)[C@@H]1CC[C@]2(C)CC[C@]3(C)[C@H](CC[C@@H]4[C@@]5(C)CC[C@H](O)C(C)(C)[C@@H]5CC[C@]43C)[C@@H]12 [LUPEOL] | > 79.6 µM (inactive) | > 46 µM (inactive) | 15.6 µM (inactive) | 27.5 µM (inactive) | 61.5 µM (inactive) | 21.9 µM (inactive) | > 100 µM (inactive) | – | 14 µM (inactive) | 58.6 µM (inactive) | 53.7 µM (inactive) | 44.5 µM (inactive) | > 100 µM (inactive) | > 42.7 µM (inactive) | 25.6 µM (inactive) | > 74 µM (inactive) | > 81.1 µM (inactive) | 22.1 µM (inactive) | > 88.7 µM (inactive) | > 50.4 µM (inactive) |
| N#CC1(C#N)C(C#N)(C#N)C1(C#N)C(N)=O | > 100 µM (inactive) | > 100 µM (inactive) | > 100 µM (inactive) | > 100 µM (inactive) | > 100 µM (inactive) | > 100 µM (inactive) | > 100 µM (inactive) | > 100 µM (inactive) | > 100 µM (inactive) | > 100 µM (inactive) | > 100 µM (inactive) | > 100 µM (inactive) | > 100 µM (inactive) | > 100 µM (inactive) | > 100 µM (inactive) | > 100 µM (inactive) | > 100 µM (inactive) | > 100 µM (inactive) | – | > 100 µM (inactive) |
| Cc1ccc(OCCn2cc(Nc3ccccc3)c(=O)n(CCOc3ccc(C)cc3)c2=O)cc1 | 48.4 µM (inactive) | 70.5 µM (inactive) | > 100 µM (inactive) | 67.1 µM (inactive) | > 100 µM (inactive) | 51.6 µM (inactive) | > 100 µM (inactive) | – | 23.5 µM (inactive) | 69.5 µM (inactive) | > 100 µM (inactive) | > 100 µM (inactive) | > 100 µM (inactive) | > 100 µM (inactive) | 67.6 µM (inactive) | > 100 µM (inactive) | > 100 µM (inactive) | > 100 µM (inactive) | > 100 µM (inactive) | > 100 µM (inactive) |
